According to the CheMixHub viscosity set:
± gives the uncertainty stated by the source.

Experiment: xn = mol fraction of the nth substance listed

**Q.** For `CN1CCCC1=O` + O, which viscosity (293.15 K, 101 kPa, x1 = 0.6997) is on record?
**A.** Its viscosity is 2.865 ± 0.045 mPa·s.

**Q.** What about the viscosity (298.15 K, 101 kPa, x1 = 0.02) of the same molecule?
**A.** The viscosity was 1.2 ± 0.012 mPa·s.

**Q.** What about the viscosity (298.15 K, 101 kPa, x1 = 0.0505) of the same molecule?
**A.** The viscosity was 1.809 ± 0.015 mPa·s.

**Q.** And the viscosity (298.15 K, 101 kPa, x1 = 0.0985)?
**A.** Its viscosity is 2.79 ± 0.03 mPa·s.

**Q.** And the viscosity (298.15 K, 101 kPa, x1 = 0.0997)?
**A.** Its viscosity is 2.778 ± 0.02 mPa·s.

**Q.** What about the viscosity (298.15 K, 101 kPa, x1 = 0.1202) of the same molecule?
**A.** Its viscosity is 3.198 ± 0.023 mPa·s.

**Q.** What about the viscosity (298.15 K, 101 kPa, x1 = 0.1503) of the same molecule?
**A.** The viscosity was 3.914 ± 0.026 mPa·s.

**Q.** And the viscosity (298.15 K, 101 kPa, x1 = 0.1702)?
**A.** Its viscosity is 4.125 ± 0.027 mPa·s.

**Q.** What about the viscosity (298.15 K, 101 kPa, x1 = 0.1881) of the same molecule?
**A.** Its viscosity is 4.44 ± 0.04 mPa·s.

**Q.** What about the viscosity (298.15 K, 101 kPa, x1 = 0.1999) of the same molecule?
**A.** Its viscosity is 4.578 ± 0.03 mPa·s.

**Q.** What about the viscosity (298.15 K, 101 kPa, x1 = 0.2205) of the same molecule?
**A.** The viscosity was 4.804 ± 0.031 mPa·s.

**Q.** And the viscosity (298.15 K, 101 kPa, x1 = 0.2496)?
**A.** The viscosity was 5.035 ± 0.032 mPa·s.

**Q.** What about the viscosity (298.15 K, 101 kPa, x1 = 0.2697) of the same molecule?
**A.** The viscosity was 5.12 ± 0.033 mPa·s.

**Q.** And the viscosity (298.15 K, 101 kPa, x1 = 0.2937)?
**A.** Its viscosity is 5.154 ± 0.033 mPa·s.

**Q.** What about the viscosity (298.15 K, 101 kPa, x1 = 0.3053) of the same molecule?
**A.** The viscosity was 5.1 ± 0.05 mPa·s.

**Q.** And the viscosity (298.15 K, 101 kPa, x1 = 0.3496)?
**A.** Its viscosity is 5.006 ± 0.032 mPa·s.

**Q.** What about the viscosity (298.15 K, 101 kPa, x1 = 0.3959) of the same molecule?
**A.** Its viscosity is 4.59 ± 0.04 mPa·s.

**Q.** And the viscosity (298.15 K, 101 kPa, x1 = 0.3999)?
**A.** The viscosity was 4.679 ± 0.03 mPa·s.

**Q.** And the viscosity (298.15 K, 101 kPa, x1 = 0.45)?
**A.** The viscosity was 4.31 ± 0.028 mPa·s.

**Q.** What about the viscosity (298.15 K, 101 kPa, x1 = 0.4954) of the same molecule?
**A.** The viscosity was 3.77 ± 0.04 mPa·s.

**Q.** What about the viscosity (298.15 K, 101 kPa, x1 = 0.4999) of the same molecule?
**A.** Its viscosity is 3.909 ± 0.026 mPa·s.

**Q.** What about the viscosity (298.15 K, 101 kPa, x1 = 0.5941) of the same molecule?
**A.** Its viscosity is 3.07 ± 0.03 mPa·s.

**Q.** What about the viscosity (298.15 K, 101 kPa, x1 = 0.6002) of the same molecule?
**A.** Its viscosity is 3.214 ± 0.022 mPa·s.

**Q.** What about the viscosity (298.15 K, 101 kPa, x1 = 0.6917) of the same molecule?
**A.** Its viscosity is 2.55 ± 0.02 mPa·s.

**Q.** And the viscosity (298.15 K, 101 kPa, x1 = 0.7)?
**A.** Its viscosity is 2.676 ± 0.018 mPa·s.

**Q.** What about the viscosity (298.15 K, 101 kPa, x1 = 0.786) of the same molecule?
**A.** The viscosity was 2.18 ± 0.02 mPa·s.

**Q.** What about the viscosity (298.15 K, 101 kPa, x1 = 0.7997) of the same molecule?
**A.** The viscosity was 2.299 ± 0.016 mPa·s.

**Q.** What about the viscosity (298.15 K, 101 kPa, x1 = 0.8859) of the same molecule?
**A.** The viscosity was 1.9 ± 0.02 mPa·s.

**Q.** And the viscosity (298.15 K, 101 kPa, x1 = 0.8962)?
**A.** Its viscosity is 2.023 ± 0.015 mPa·s.

**Q.** And the viscosity (298.15 K, 101 kPa, x1 = 0.9498)?
**A.** The viscosity was 1.908 ± 0.014 mPa·s.

**Q.** And the viscosity (298.15 K, 101.15 kPa, x1 = 0.0501)?
**A.** Its viscosity is 1.74 ± 0.02 mPa·s.

**Q.** And the viscosity (298.15 K, 101.15 kPa, x1 = 0.0701)?
**A.** Its viscosity is 2.137 ± 0.024 mPa·s.

**Q.** What about the viscosity (298.15 K, 101.15 kPa, x1 = 0.1001) of the same molecule?
**A.** Its viscosity is 2.762 ± 0.031 mPa·s.

**Q.** And the viscosity (298.15 K, 101.15 kPa, x1 = 0.2004)?
**A.** Its viscosity is 4.555 ± 0.052 mPa·s.

**Q.** And the viscosity (298.15 K, 101.15 kPa, x1 = 0.3004)?
**A.** The viscosity was 5.062 ± 0.059 mPa·s.

**Q.** What about the viscosity (298.15 K, 101.15 kPa, x1 = 0.4012) of the same molecule?
**A.** The viscosity was 4.505 ± 0.054 mPa·s.

**Q.** And the viscosity (298.15 K, 101.15 kPa, x1 = 0.503)?
**A.** The viscosity was 3.729 ± 0.046 mPa·s.

**Q.** And the viscosity (298.15 K, 101.15 kPa, x1 = 0.5937)?
**A.** Its viscosity is 3.075 ± 0.039 mPa·s.

**Q.** And the viscosity (298.15 K, 101.15 kPa, x1 = 0.7023)?
**A.** Its viscosity is 2.503 ± 0.033 mPa·s.

**Q.** What about the viscosity (298.15 K, 101.15 kPa, x1 = 0.9006) of the same molecule?
**A.** The viscosity was 1.836 ± 0.027 mPa·s.

**Q.** And the viscosity (298.16 K, 101 kPa, x2 = 0.0836)?
**A.** The viscosity was 1.84 ± 0.02 mPa·s.

**Q.** And the viscosity (298.16 K, 101 kPa, x2 = 0.1794)?
**A.** Its viscosity is 2.14 ± 0.02 mPa·s.

**Q.** What about the viscosity (298.16 K, 101 kPa, x2 = 0.3006) of the same molecule?
**A.** Its viscosity is 2.72 ± 0.03 mPa·s.

**Q.** And the viscosity (298.16 K, 101 kPa, x2 = 0.4221)?
**A.** The viscosity was 3.52 ± 0.04 mPa·s.

**Q.** What about the viscosity (298.16 K, 101 kPa, x2 = 0.5466) of the same molecule?
**A.** Its viscosity is 4.45 ± 0.04 mPa·s.

**Q.** What about the viscosity (298.16 K, 101 kPa, x2 = 0.6595) of the same molecule?
**A.** The viscosity was 5.05 ± 0.04 mPa·s.

**Q.** What about the viscosity (298.16 K, 101 kPa, x2 = 0.6861) of the same molecule?
**A.** Its viscosity is 5.04 ± 0.04 mPa·s.

**Q.** And the viscosity (298.16 K, 101 kPa, x2 = 0.7608)?
**A.** The viscosity was 4.66 ± 0.04 mPa·s.

**Q.** What about the viscosity (298.16 K, 101 kPa, x2 = 0.7976) of the same molecule?
**A.** Its viscosity is 4.23 ± 0.04 mPa·s.

**Q.** What about the viscosity (298.16 K, 101 kPa, x2 = 0.8599) of the same molecule?
**A.** The viscosity was 3.2 ± 0.03 mPa·s.

**Q.** And the viscosity (303.15 K, 101 kPa, x1 = 0.3001)?
**A.** Its viscosity is 4.365 ± 0.073 mPa·s.

**Q.** What about the viscosity (303.15 K, 101 kPa, x1 = 0.899) of the same molecule?
**A.** Its viscosity is 1.705 ± 0.028 mPa·s.

**Q.** What about the viscosity (308.15 K, 101 kPa, x1 = 0.02) of the same molecule?
**A.** The viscosity was 0.9403 ± 0.0092 mPa·s.
